Like-named read-outs stand apart in the source and are kept apart here.
Key:
[1] = test system: human colon carcinoma CX-1; assay: anti-human colon carcinoma CX-1 activity using nude mice; format: in vivo, Swiss nu/nu mice (human tumor); conditions: Mus musculus, ip, 24 h, read-out: Tumor Inhibition
Text: Human colon carcinoma cell line CX-1 has been chosen by the National Cancer Institute as a mode for cancer drug screening (NCI Protocol 3C2H2). It was established in culture from the surgical explant of the primary colon adenocarcinoma of a person with no previous chemotherapy. The cultured CX-1 cells, upon subcutaneous injection, can grow readily in nude mice as a moderately- to well-differentiated human colon carcinoma. CEA is expressed as expected for differentiated colon carcinoma cells. Abundant keratin, consistent with epithelial origin, is present. Increased uptake and prolonged retention of delocalized lipophilic cations are observed.
Swiss nu/nu mice obtained from Taconic Farm were housed in a pathogen-free environment. Tumors subcutaneously passaged in nude mice were excised under sterile conditions and converted to a single cell suspension using a metal grid with a 0.4 mm mesh. Red blood cells were lysed by incubation with 0.17M ammonium chloride at 4° C. for 20 minutes. Cells were scored for viability with trypan blue. Viable CX-1 cells (2.5 million) made up in 0.1 ml of […]. The mice were randomly allocated into a control group (five mice) and a treatment group (five mice per group). The drug treatment was commenced the next day. Doses and schedules were developed empirically and were based mainly on information on LD50 and LD1O obtained from preliminary toxicity studies. The control group received an equivalent volume of hydroxypropyl-β-cyclodextrin-5% glucose solution.
The pharmaceutical compositions tested comprised solutions in 5% glucose subjected to sonication at concentrations of 1 mg/ml. Those compounds which were not completely dissolved by this procedure were dissolved hydroxypropyl-β-cyclodextrin using the following method. Hydroxypropyl-β-cyclodextrin (45 g) was mixed with 100 ml of sterilized, double distilled water and stirred for four hours. Each of the compounds to be tested (20 mg) was mixed with 10 ml of hydroxypropyl-β-cyclodextrin solution and sonicated for 60 minutes in the dark. This solution was then diluted in 5% glucose to yield a final compound concentration of 0.5 mg/ml, and further sonicated for 60 minutes in the dark to assure that the compound was completely dissolved.
When the growth of tumors in the control group reached the exponential phase and the size of the tumor was palpable (usually 20 to 30 days after tumor implantation), the experiments were terminated. Tumors in each mouse were excised and weighed using an analytical balance. Total tumor weight in each group from five mice was calculated. Per cent tumor inhibition between the treated group and the control group was then calculated for each group.

CV-1 cells = assay: selective killing assay, colony number reduced to 50% of control, normal monkey kidney epithelial cell line CV-1; format: cell-based; conditions: 24 hours treatment; for IC50: Primates; for CV-1 (IC50): Table III
Text: (§1) The control received culture media only.

EJ cells = assay: colony assay of Example 1 with human bladder carcinoma EJ cell line; format: cell-based; conditions: for Selectivity: CV-1/EJ; for IC50: EJ;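 for all read-outs here: colony formation assay with 24 h compound exposure at 37 °C, then 7–10 days drug-free regrowth, colonies stained with crystal violet, controls given medium alone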
Protocol: Human colon carcinoma cell line CX-1 or normal monkey kidney epithelial cell line CV-1 was chosen as representatives of cancer cells and normal cells, respectively. […] CX-1 cells (2,000 cells/well) and CV-1 cells (1,000 cells/well) were plated in 24-well plastic culture plates. […] The control received culture media only. Cells were treated with compounds of General Formulas (I) to (V) at 37° C. for 24 hours. After rinsing with fresh culture medium three times, the cells were further incubated at 37° C. for 7 to 10 days. Cell colonies were fixed and stained with 2% crystal violet in 70% ethanol for 10 minutes and rinsed in water. […] The selectivity is defined as the ratio of IC50 for CV-1 and IC50 for CX-1.

CX-1 cells = assay: selective killing assay, colony number reduced to 50% of control, human colon carcinoma cell line CX-1; format: cell-based; conditions: for Selectivity (ratio of IC50 for CV-1 and IC50 for CX-1): CV-1/CX-1; for CX-1 (IC50) / IC50: human colon carcinoma, 24 hours treatment, colony count after 7 to 10 days;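 for all read-outs here: colonies stained with crystal violet and counted, control cells given medium alone, exposure at 37 °C, normal monkey kidney epithelial CV-1 cells as the non-cancer comparator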
MCF-7 cells = assay: colony assay of Example 1 with human breast carcinoma MCF-7 cell line; format: cell-based; conditions: for Selectivity: CV-1/MCF-7; for IC50: Table VI, human breast carcinoma, 24 hours treatment
Text: as §1

CRL 1420 cells = assay: colony assay of Example 1 with human pancreatic carcinoma CRL 1420 cell line; format: cell-based; conditions: for Selectivity: CV-1/CRL-1420;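 for all read-outs here: colony formation assay, cells exposed for 24 h then regrown 7 to 10 days without compound, colonies stained with crystal violet, control given medium alone, normal reference CV-1 monkey kidney epithelial cells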
LOX cells = assay: colony assay of Example 1 with human melanoma LOX cell line; format: cell-based; conditions: for Selectivity: CV-1/LOX; for IC50: LOX;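 for all read-outs here: colony formation assay with 24 h exposure at 37 °C, then 7 to 10 days of regrowth, crystal violet staining of colonies, control wells given medium alone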
human melanoma LOX = assay: survival of nude mice implanted with human melanoma LOX; format: in vivo, male athymic Swiss nu/nu mouse (human tumor); conditions: Mus musculus, ip, 24 h, read-out: T/C
[2] = 5 mg/kg i.p. on day 1, 5, 8, 11
[3] = Table IV, human bladder carcinoma, 24 hours treatment
[4] = Table VII, human pancreatic carcinoma, 24 hours treatment
[5] = Table V, human melanoma, 24 hours treatment
[6] = normal monkey kidney epithelial cells, colony count after 7 to 10 days
[7] = CV-1, Table III, normal monkey kidney epithelial cells, colony count after 7 to 10 days

SMILES | inhibition in vivo at 5 mg/kg [1, 2] | IC50 (CV-1 cells; CV-1, 24 h, Table VI) | Selectivity (EJ cells) | Selectivity (ratio of IC50 for CV-1 and IC50 for CX-1) (CX-1 cells) | CX-1 (IC50) (CX-1 cells; Table III) | Selectivity (MCF-7 cells) | IC50 (MCF-7 cells; Homo sapiens, MCF7, 24 h) | Selectivity (CRL 1420 cells) | Selectivity (LOX cells) | CV-1 (IC50) (CV-1 cells; [6]) | IC50 (CV-1 cells; [7]) | IC50 (CX-1 cells; Homo sapiens, CX-1, Table III) | also measured
CCn1c(=Cc2oc3ccccc3[n+]2C)sc(=C2Sc3ccccc3N2C)c1=O [Compound 26] | 53.6% | 20 µg/mL | 400 | 500 | 0.04 µg/mL | 333 | 0.06 µg/mL | 500 | 400 | – | – | – | EJ (IC50) (EJ cells; [3]): 0.05 µg/mL; CRL-1420(IC50) (CRL 1420 cells; [4]): 0.04 µg/mL; LOX(IC50) (LOX cells; [5]): 0.05 µg/mL
CCn1c(=Cc2oc3ccccc3[n+]2CC)sc(=C2Sc3ccccc3N2C)c1=O [Compound 28] | – | – | – | 175 | 0.04 µg/mL | – | – | – | – | 7 µg/mL | – | – | inhibition in vivo at 5 mg/kg ([1]; 5 mg/kg i.p. on day 1, 4, 8, 12, 16, 21): 68.8%
CCn1c(=C2CCC[n+]3c2sc2ccccc23)sc(=C2Sc3ccccc3N2C)c1=O [Compound 39] | 74.9% | 20 µg/mL | 500 | 500 | – | 222 | 0.09 µg/mL | 400 | 666 | – | 20 µg/mL | 0.04 µg/mL | IC50 (CV-1 cells; CV-1, 24 h, Table IV): 20 µg/mL; IC50 (CV-1 cells; CV-1, 24 h, Table V): 20 µg/mL; IC50 (CV-1 cells; CV-1, 24 h, Table VII): 20 µg/mL; IC50 (EJ cells; Homo sapiens, 24 h, Table IV, human bladder carcinoma, 24 hours treatment): 0.04 µg/mL; IC50 (CRL 1420 cells; Homo sapiens, 24 h, Table VII, human pancreatic carcinoma, 24 hours treatment): 0.05 µg/mL; IC50 (LOX cells; Homo sapiens, 24 h, Table V, human melanoma, 24 hours treatment): 0.03 µg/mL; response vs control in vivo at 5 mg/kg (human melanoma LOX; 5 mg/kg i.p. on day 1, 4, 11, 15, 18): 154%
CN1C(=c2sc(=Cc3oc4ccccc4[n+]3C)n(C)c2=O)Sc2ccccc21 [Compound 57] | – | – | – | 120 | – | – | – | – | – | 6 µg/mL | – | 0.05 µg/mL | inhibition in vivo at 10 mg/kg ([1]; 10 mg/kg i.p. on day 1, 2, 5, 6, 7, 8): 66.3%; response vs control in vivo at 5 mg/kg (human melanoma LOX; 5 mg/kg i.p. on day 1, 2, 3, 6, 7, 8, 9, 10, 14): 163%
CCn1c(=Cc2[se]c3ccccc3[n+]2CC)sc(=C2Sc3ccccc3N2C)c1=O [Compound 27] | – | – | 1000 | 667 | – | 333 | – | 1333 | 1333 | – | 20 µg/mL | – | inhibition in vivo at 2.5 mg/kg [1]: 40.9%; IC50 (CV-1 cells; CV-1, Table IV): 20 µg/mL; IC50 (CV-1 cells; CV-1, Table V): 20 µg/mL; IC50 (EJ cells; [3]): 0.02 µg/mL; IC50 (CX-1 cells; CX-1, Table III): 0.03 µg/mL; IC50 (MCF-7 cells; MCF7): 0.06 µg/mL; IC50 (CRL 1420 cells; [4]): 0.015 µg/mL; IC50 (LOX cells; [5]): 0.015 µg/mL
CCn1c(=Cc2oc3ccc(-c4ccccc4)cc3[n+]2CC)sc(=C2Sc3ccccc3N2C)c1=O [Compound 203] | 71.9% | – | – | – | – | – | – | – | – | – | – | – | response vs control in vivo at 5 mg/kg (human melanoma LOX; 5 mg/kg i.p. on day 1, 5, 9, 13): 139%
